# Values joined by “and” are separate entries in the source; they are usually repeats but may differ in a detail not shown here. Identical values can stand only once. Like-named read-outs stand apart in the source and are kept apart here.
# Columns and labels:
# Jurkat E6.1 cells = assay: cell viability, CTG assay, Jurkat E6.1; assay type: cell-based, human; settings: for viability at 0.125 µM: Jurkat E6.1, 0.125 µM; for cell viability (0 µM = 100): listed as AVX420; for cell viability (Control = 100): Jurkat cells
# Source text: Data are the mean ± stdev of 3 biological replicates. […] Data are the mean ± stdev of 3 biological replicates.
# Bjørn Tore Gjertsen (University of Bergen, Norway). […] The cell lines were not authenticated.
# CCRF-CEM cells = assay: cell viability, CTG assay, CCRF-CEM; settings: listed as AVX420
# Method: Data are the mean ± stdev of 3 biological replicates. c Viability of healthy T-cells measured by propidium iodide (PI) exclusion. Data are the mean ± stdev of 8 biological replicates for 1–16 µM AVX420, 5 for 32 µM AVX420 and 2 for 0.5 µM Staurosporine (Stau). d Cell viability measured by CTG assay in cells preincubated with 2.5 mM glutathione (GSH) or 2.5 mM N-acetyl cysteine (NAC) for 30 min before addition of 0.5 or 1 µM AVX420, 0.06 µM RSL-3, or 0.06 µM ML-210 for 24 h. Data are the mean ± stdev of 3 biological replicates. P-values were determined by one-way ANOVA with Dunnett’s correction for multiple testing and **** indicates P < 0.0001. e Cell viability measured by CTG assay. CCRF-CEM or Jurkat cells were co-treated with 0.5 µM AVX420 and either arachidonic acid (AA) at concentrations ranging from 1 to 100 µM or a mixture of 9 eicosanoids: 6-keto prostaglandin F1α, Thromboxane B2, prostaglandin F2α, prostaglandin E2, prostaglandin D2, 12(S)-HHTrE, 15(S)-HETE,12(S)-HETE, 5(S)-HETE at a final concentration of 2 ng/mL each (EIC-mix) for 24 h. Data are the mean ± stdev of 3 biological replicates. P-values were determined by two-way ANOVA with Sidak’s correction for multiple comparisons. f Proportion of intracellular ROS-positive cells measured by ROS-red staining and flow cytometry. Cells were treated with indicated concentrations of AVX420 (µM), 1 mM H2O2, 1 µM RSL-3, or 1 µM doxorubicin (dox) for 4 h. Data are the mean ± stdev of 3 biological replicates. g Intracellular ROS measurements in CCRF-CEM cells treated with AVX420 (0.5 µM), AVX002 (8 µM), or AACOCF3 (8 µM) for 4 h.
# All cell lines were confirmed to be free of mycoplasma contamination. The cell lines were not authenticated. MV-4-11 were cultured in Iscove’s Modified Dulbecco’s Medium (Sigma, I3390). CCRF-CEM, Jurkat E6.1, and HL-60 cells were cultured in RPMI 1640 Medium RPMI-1640 medium (Sigma, R5886).
smiles,measurement,setting,value
CCCCCCCOc1ccc(OCC(=O)c2nc(C(=O)OC)cs2)cc1 [GK420],viability at 0.007 µM,"Jurkat E6.1 cells; Homo sapiens, Jurkat E6.1, 24 h, Jurkat E6.1, 0.007 µM, 24H, read-out: cell viability (0 µM = 100)",102%
same,viability at 0.015 µM,"Jurkat E6.1 cells; Homo sapiens, Jurkat E6.1, 24 h, Jurkat E6.1, 0.015 µM, 24H, read-out: cell viability (0 µM = 100)",96%
same,viability at 0.031 µM,"Jurkat E6.1 cells; Homo sapiens, Jurkat E6.1, 24 h, Jurkat E6.1, 0.031 µM, 24H, read-out: cell viability (0 µM = 100)",99%
same,viability at 0.062 µM,"Jurkat E6.1 cells; Homo sapiens, Jurkat E6.1, 24 h, Jurkat E6.1, 0.062 µM, 24H, read-out: cell viability (0 µM = 100)",103%
same,viability at 0.125 µM,"Jurkat E6.1 cells; Homo sapiens, Jurkat E6.1, 24 h, 24H, read-out: cell viability (0 µM = 100)",101%
same,viability at 0.25 µM,"Jurkat E6.1 cells; Homo sapiens, Jurkat E6.1, 24 h, Jurkat E6.1, 0.25 µM, 24H, read-out: cell viability (0 µM = 100)",90%
same,viability at 0.5 µM,"Jurkat E6.1 cells; Homo sapiens, Jurkat E6.1, 24 h, Jurkat E6.1, 0.5 µM, 24H, read-out: cell viability (0 µM = 100)",51%
same,viability at 1 µM,"Jurkat E6.1 cells; Homo sapiens, Jurkat E6.1, 24 h, Jurkat E6.1, 1 µM, 24H, read-out: cell viability (0 µM = 100)",28%
same,viability at 2 µM,"Jurkat E6.1 cells; Homo sapiens, Jurkat E6.1, 24 h, Jurkat E6.1, 2 µM, 24H, read-out: cell viability (0 µM = 100)",16%
same,viability at 0.007 µM,"Jurkat E6.1 cells; Homo sapiens, Jurkat E6.1, 48 h, Jurkat E6.1, 0.007 µM, 48H, read-out: cell viability (0 µM = 100)",101%
same,viability at 0.015 µM,"Jurkat E6.1 cells; Homo sapiens, Jurkat E6.1, 48 h, Jurkat E6.1, 0.015 µM, 48H, read-out: cell viability (0 µM = 100)",99%
same,viability at 0.031 µM,"Jurkat E6.1 cells; Homo sapiens, Jurkat E6.1, 48 h, Jurkat E6.1, 0.031 µM, 48H, read-out: cell viability (0 µM = 100)",100%
same,viability at 0.062 µM,"Jurkat E6.1 cells; Homo sapiens, Jurkat E6.1, 48 h, Jurkat E6.1, 0.062 µM, 48H, read-out: cell viability (0 µM = 100)",104%
same,viability at 0.125 µM,"Jurkat E6.1 cells; Homo sapiens, Jurkat E6.1, 48 h, 48H, read-out: cell viability (0 µM = 100)",104%
same,viability at 0.25 µM,"Jurkat E6.1 cells; Homo sapiens, Jurkat E6.1, 48 h, Jurkat E6.1, 0.25 µM, 48H, read-out: cell viability (0 µM = 100)",79%
same,viability at 0.5 µM,"Jurkat E6.1 cells; Homo sapiens, Jurkat E6.1, 48 h, Jurkat E6.1, 0.5 µM, 48H, read-out: cell viability (0 µM = 100)",39%
same,viability at 1 µM,"Jurkat E6.1 cells; Homo sapiens, Jurkat E6.1, 48 h, Jurkat E6.1, 1 µM, 48H, read-out: cell viability (0 µM = 100)",16%
same,viability at 2 µM,"Jurkat E6.1 cells; Homo sapiens, Jurkat E6.1, 48 h, Jurkat E6.1, 2 µM, 48H, read-out: cell viability (0 µM = 100)",9%
same,viability at 4 µM,"Jurkat E6.1 cells; Homo sapiens, Jurkat E6.1, 48 h, Jurkat E6.1, 4 µM, 48H, read-out: cell viability (0 µM = 100)",5%
same,viability at 0.007 µM,"Jurkat E6.1 cells; Homo sapiens, Jurkat E6.1, 72 h, Jurkat E6.1, 0.007 µM, 72H, read-out: cell viability (0 µM = 100)",100%
same,viability at 0.015 µM,"Jurkat E6.1 cells; Homo sapiens, Jurkat E6.1, 72 h, Jurkat E6.1, 0.015 µM, 72H, read-out: cell viability (0 µM = 100)",97%
same,viability at 0.031 µM,"Jurkat E6.1 cells; Homo sapiens, Jurkat E6.1, 72 h, Jurkat E6.1, 0.031 µM, 72H, read-out: cell viability (0 µM = 100)",90%
same,viability at 0.062 µM,"Jurkat E6.1 cells; Homo sapiens, Jurkat E6.1, 72 h, Jurkat E6.1, 0.062 µM, 72H, read-out: cell viability (0 µM = 100)",87%
same,viability at 0.125 µM,"Jurkat E6.1 cells; Homo sapiens, Jurkat E6.1, 72 h, 72H, read-out: cell viability (0 µM = 100)",87%
same,viability at 0.25 µM,"Jurkat E6.1 cells; Homo sapiens, Jurkat E6.1, 72 h, Jurkat E6.1, 0.25 µM, 72H, read-out: cell viability (0 µM = 100)",76%
same,viability at 0.5 µM,"Jurkat E6.1 cells; Homo sapiens, Jurkat E6.1, 72 h, Jurkat E6.1, 0.5 µM, 72H, read-out: cell viability (0 µM = 100)",31%
same,viability at 1 µM,"Jurkat E6.1 cells; Homo sapiens, Jurkat E6.1, 72 h, Jurkat E6.1, 1 µM, 72H, read-out: cell viability (0 µM = 100)",10%
same,viability at 0.5 µM,"Jurkat E6.1 cells; Homo sapiens, Jurkat E6.1, Jurkat cells, 0.5 µM, VEH, read-out: cell viability (Control = 100)",50%
same,viability at 1 µM,"Jurkat E6.1 cells; Homo sapiens, Jurkat E6.1, Jurkat cells, 1 µM, VEH, read-out: cell viability (Control = 100)",34%
same,cell viability (0 µM = 100),"Jurkat E6.1 cells; Jurkat E6.1, 0.007 µM, 24H",98 and 97
same,cell viability (0 µM = 100),"Jurkat E6.1 cells; Jurkat E6.1, 0.007 µM, 48H",98 and 97
same,cell viability (0 µM = 100),"Jurkat E6.1 cells; Jurkat E6.1, 0.007 µM, 72H",98
same,cell viability (0 µM = 100),"Jurkat E6.1 cells; Jurkat E6.1, 0.015 µM, 48H",98 and 97
same,cell viability (0 µM = 100),"Jurkat E6.1 cells; Jurkat E6.1, 0.031 µM, 24H",95
same,cell viability (0 µM = 100),"Jurkat E6.1 cells; Jurkat E6.1, 0.031 µM, 48H",98
same,cell viability (0 µM = 100),"Jurkat E6.1 cells; Jurkat E6.1, 0.031 µM, 72H",95
same,cell viability (0 µM = 100),"Jurkat E6.1 cells; Jurkat E6.1, 0.062 µM, 24H",94
same,cell viability (0 µM = 100),"Jurkat E6.1 cells; Jurkat E6.1, 0.062 µM, 48H",93
same,cell viability (0 µM = 100),"Jurkat E6.1 cells; Jurkat E6.1, 0.062 µM, 72H",98
same,cell viability (0 µM = 100),"Jurkat E6.1 cells; Jurkat E6.1, 0.25 µM, 72H",61
same,cell viability (0 µM = 100),"Jurkat E6.1 cells; Jurkat E6.1, 0.5 µM, 24H",41 and 43
same,cell viability (0 µM = 100),"Jurkat E6.1 cells; Jurkat E6.1, 0.5 µM, 72H",30 and 21
same,cell viability (0 µM = 100),"Jurkat E6.1 cells; Jurkat E6.1, 1 µM, 24H",19 and 21
same,cell viability (0 µM = 100),"Jurkat E6.1 cells; Jurkat E6.1, 1 µM, 48H",14 and 13
same,cell viability (0 µM = 100),"Jurkat E6.1 cells; Jurkat E6.1, 1 µM, 72H",8
same,cell viability (0 µM = 100),"Jurkat E6.1 cells; Jurkat E6.1, 2 µM, 48H",7
same,cell viability (0 µM = 100),"Jurkat E6.1 cells; Jurkat E6.1, 4 µM, 48H",3
same,effect on viability,"Jurkat E6.1 cells; Jurkat E6.1, CTG",strong dose-dependent effect
same,cell viability (Control = 100),"Jurkat E6.1 cells; 0.5 µM, VEH, listed as AVX420, 0.5 µM",46 and 55
same,cell viability (Control = 100),"Jurkat E6.1 cells; 1 µM, VEH, listed as AVX420, 1 µM",21
same,cell viability (0 µM = 100),"CCRF-CEM cells; 0.007 µM, 24H",100
same,cell viability (0 µM = 100),"CCRF-CEM cells; 0.015 µM, 24H",90
same,cell viability (0 µM = 100),"CCRF-CEM cells; 0.015 µM, 72H",81
same,cell viability (0 µM = 100),"CCRF-CEM cells; 0.031 µM, 24H",99
same,cell viability (0 µM = 100),"CCRF-CEM cells; 0.062 µM, 24H",103
same,cell viability (0 µM = 100),"CCRF-CEM cells; 0.062 µM, 48H",84
same,cell viability (0 µM = 100),"CCRF-CEM cells; 0.062 µM, 72H",70
same,cell viability (0 µM = 100),"CCRF-CEM cells; 0.125 µM, 72H",45 and 46

# Source: paper PMC11696576, “Next generation thiazolyl ketone inhibitors of cytosolic phospholipase A2 α for targeted cancer therapy” (Nature Communications, 2025)
